ChEMBL document CHEMBL5726056, “2-oxo-3,4-dihydroquinolin-6-yl sulphonamide CPDS and their use as plant growth regulators” (2019)

Assays:
[1] = (§1) PP2C Activity Assay: HAB1 and PYL proteins were expressed and purified as described in Park et al. ((2009) Science 324(5930):1068-1071), with minor modifications. To obtain GST-HAB1, the HAB1 cDNA was cloned into pGex-2T. Expression was conducted in BL21[DE3]pLysS host cells. Transformed cells were pre-cultured overnight, transferred to LB medium and cultured at 30° C. to culture A600 of ¿0.5.The culture was then cooled on ice and MnCl2 added to 4 mM and IPTG added to 0.3 mM. After 16 hours incubation at 15° C., cells were harvested and recombinant proteins were purified on glutathione agarose as described in Park et al. To obtain 6×His-PYL receptor fusion proteins, expression constructs previously described by Okamoto et al. 2013, (PNAS 110(29): 12132-12137) were used. ABA receptors were expressed and purified as described above.For the values shown in Table B5, PP2C activity assays using recombinant receptors and PP2Cs were carried out as follows: purified proteins were pre-incubated in 160 μl assay buffer containing 100 mM Tris-HCl-pH7.9, 100 mM NaCl, 3 μg bovine serum albumin, 0.1% 2-mercaptoethanol, 1 mM MnCl2 with ABA or agonists (compounds of the present invention) for 30 minutes at room temperature. […]
[2] = as §1; remark: listed apart in the source

CCN1C(=O)CC(C)c2cc(NS(=O)(=O)Cc3ccc(C4CC4)cc3)ccc21 (configuration not stated)
IC50 [1]: 200 nM
IC50 [2]: 101 nM
